Source: ChEMBL document CHEMBL4219190, “Studies on synthesis of novel pyrido[2,3-d]pyrimidine derivatives, evaluation of their antimicrobial activity and molecular docking” (Bioorg Med Chem Lett, 2018)
Active and inactive are the calls of the source.

Tests used:
Pichia sporocuriosa [1] = experiment: Antifungal activity against Issatchenkia hanoiensis MTCC 4755 after 24 hrs by well diffusion method; assay type: functional; details: MTCC 4755, 24 h
Raoultella planticola [2] = experiment: Antibiofilm activity against Klebsiella planticola MTCC 530 after 24 hrs by crystal violet staining-based assay; assay type: functional, organism-based; details: Klebsiella planticola, MTCC 530, 24 h; read-out: IC50
Candida albicans [3] = experiment: Antifungal activity against Candida albicans MTCC 854 after 24 hrs by well diffusion method; assay type: functional; details: MTCC 854, 24 h
[Candida] aaseri [4] = Antifungal activity against Candida aaseri MTCC 1962 after 24 hrs by well diffusion method; assay type: functional; details: Yamadazyma aaseri, MTCC 1962, 24 h
Raoultella planticola [5] = experiment: Bactericidal activity against Klebsiella planticola MTCC 530 incubated for 24 hrs followed by transfer of microbial suspension to Mueller Hinton agar plates and measured after 24 hrs post transfer; assay type: functional; details: MTCC 530, 24 h
Nakaseomyces glabratus [6] = experiment: Antifungal activity against Candida glabrata MTCC 3019 after 24 hrs by well diffusion method; assay type: functional; details: MTCC 3019, 24 h
Candida albicans [7] = experiment: Antifungal activity against Candida albicans MTCC 4748 after 24 hrs by well diffusion method; assay type: functional; details: MTCC 4748, 24 h
Pichia kudriavzevii [8] = experiment: Fungicidal activity against Candida krusei MTCC 3020 incubated for 24 hrs followed by transfer of microbial suspension to Sabouraud dextrose agar plates and measured after 24 hrs post transfer; assay type: functional
Pseudomonas aeruginosa [9] = experiment: Antibiofilm activity against Pseudomonas aeruginosa MTCC 2453 after 24 hrs by crystal violet staining-based assay; assay type: functional, organism-based; details: Pseudomonas aeruginosa, MTCC 2453, 24 h; read-out: IC50
Candida parapsilosis [10] = experiment: Antifungal activity against Candida parapsilosis MTCC 1744 after 24 hrs by well diffusion method; assay type: functional; details: MTCC 1744, 24 h
Micrococcus luteus [11] = experiment: Antibacterial activity against Micrococcus luteus MTCC 2470 after 24 hrs by well diffusion method; assay type: functional; details: MTCC 2470, 24 h
Pichia sporocuriosa [12] = experiment: Fungicidal activity against Issatchenkia hanoiensis MTCC 4755 incubated for 24 hrs followed by transfer of microbial suspension to Sabouraud dextrose agar plates and measured after 24 hrs post transfer; assay type: functional; details: MTCC 4755, 24 h
Escherichia coli [13] = experiment: Antibacterial activity against Escherichia coli MTCC 739 after 24 hrs by well diffusion method; assay type: functional; details: MTCC 739, 24 h
Candida albicans [14] = experiment: Fungicidal activity against Candida albicans MTCC 227 incubated for 24 hrs followed by transfer of microbial suspension to Sabouraud dextrose agar plates and measured after 24 hrs post transfer; assay type: functional; details: MTCC 227, 24 h
Candida albicans [15] = experiment: Fungicidal activity against Candida albicans MTCC 1637 incubated for 24 hrs followed by transfer of microbial suspension to Sabouraud dextrose agar plates and measured after 24 hrs post transfer; assay type: functional; details: MTCC 1637, 24 h
Candida albicans [16] = experiment: Fungicidal activity against Candida albicans MTCC 3018 incubated for 24 hrs followed by transfer of microbial suspension to Sabouraud dextrose agar plates and measured after 24 hrs post transfer; assay type: functional; details: MTCC 3018, 24 h
Candida albicans [17] = experiment: Antifungal activity against Candida albicans MTCC 3017 after 24 hrs by well diffusion method; assay type: functional; details: MTCC 3017, 24 h
Candida albicans [18] = experiment: Antifungal activity against Candida albicans MTCC 7315 after 24 hrs by well diffusion method; assay type: functional; details: MTCC 7315, 24 h
Candida albicans [19] = experiment: Fungicidal activity against Candida albicans MTCC 4748 incubated for 24 hrs followed by transfer of microbial suspension to Sabouraud dextrose agar plates and measured after 24 hrs post transfer; assay type: functional; details: MTCC 4748, 24 h
Candida albicans [20] = experiment: Antifungal activity against Candida albicans MTCC 227 after 24 hrs by well diffusion method; assay type: functional; details: MTCC 227, 24 h
Nakaseomyces glabratus [21] = experiment: Fungicidal activity against Candida glabrata MTCC 3019 incubated for 24 hrs followed by transfer of microbial suspension to Sabouraud dextrose agar plates and measured after 24 hrs post transfer; assay type: functional; details: MTCC 3019, 24 h
Staphylococcus aureus [22] = experiment: Antibacterial activity against Staphylococcus aureus MTCC 96 after 24 hrs by well diffusion method; assay type: functional; details: MTCC 96, 24 h
Micrococcus luteus [23] = experiment: Bactericidal activity against Micrococcus luteus MTCC 2470 incubated for 24 hrs followed by transfer of microbial suspension to Mueller Hinton agar plates and measured after 24 hrs post transfer; assay type: functional; details: MTCC 2470, 24 h
Bacillus subtilis [24] = experiment: Antibiofilm activity against Bacillus subtilis MTCC 121 after 24 hrs by crystal violet staining-based assay; assay type: functional, organism-based; details: Bacillus subtilis, MTCC 121, 24 h; read-out: IC50
Candida albicans [25] = experiment: Fungicidal activity against Candida albicans MTCC 183 incubated for 24 hrs followed by transfer of microbial suspension to Sabouraud dextrose agar plates and measured after 24 hrs post transfer; assay type: functional; details: MTCC 183, 24 h
Staphylococcus aureus [26] = experiment: Antibiofilm activity against Staphylococcus aureus MLS16 MTCC 2940 after 24 hrs by crystal violet staining-based assay; assay type: functional, organism-based; details: Staphylococcus aureus, MLS16 MTCC 2940, 24 h; read-out: IC50
Candida albicans [27] = experiment: Antifungal activity against Candida albicans MTCC 183 after 24 hrs by well diffusion method; assay type: functional; details: MTCC 183, 24 h
Bacillus subtilis [28] = experiment: Antibacterial activity against Bacillus subtilis MTCC 121 after 24 hrs by well diffusion method; assay type: functional; details: MTCC 121, 24 h
Pseudomonas aeruginosa [29] = experiment: Bactericidal activity against Pseudomonas aeruginosa MTCC 2453 incubated for 24 hrs followed by transfer of microbial suspension to Mueller Hinton agar plates and measured after 24 hrs post transfer; assay type: functional; details: MTCC 2453, 24 h
Candida albicans [30] = experiment: Fungicidal activity against Candida albicans MTCC 3958 incubated for 24 hrs followed by transfer of microbial suspension to Sabouraud dextrose agar plates and measured after 24 hrs post transfer; assay type: functional; details: MTCC 3958, 24 h
Candida parapsilosis [31] = experiment: Fungicidal activity against Candida parapsilosis MTCC 1744 incubated for 24 hrs followed by transfer of microbial suspension to Sabouraud dextrose agar plates and measured after 24 hrs post transfer; assay type: functional; details: Lodderomyces parapsilosis, MTCC 1744, 24 h
Staphylococcus aureus [32] = experiment: Bactericidal activity against Staphylococcus aureus MLS16 MTCC 2940 incubated for 24 hrs followed by transfer of microbial suspension to Mueller Hinton agar plates and measured after 24 hrs post transfer; assay type: functional; details: MLS16 MTCC 2940, 24 h
Candida albicans [33] = experiment: Antifungal activity against Candida albicans MTCC 1637 after 24 hrs by well diffusion method; assay type: functional; details: MTCC 1637, 24 h
Raoultella planticola [34] = experiment: Antibacterial activity against Klebsiella planticola MTCC 530 after 24 hrs by well diffusion method; assay type: functional; details: MTCC 530, 24 h
Pichia kudriavzevii [35] = experiment: Antifungal activity against Candida krusei MTCC 3020 after 24 hrs by well diffusion method; assay type: functional
Escherichia coli [36] = experiment: Bactericidal activity against Escherichia coli MTCC 739 incubated for 24 hrs followed by transfer of microbial suspension to Mueller Hinton agar plates and measured after 24 hrs post transfer; assay type: functional; details: MTCC 739, 24 h
Pseudomonas aeruginosa [37] = experiment: Antibacterial activity against Pseudomonas aeruginosa MTCC 2453 after 24 hrs by well diffusion method; assay type: functional; details: MTCC 2453, 24 h
Candida albicans [38] = experiment: Fungicidal activity against Candida albicans MTCC 854 incubated for 24 hrs followed by transfer of microbial suspension to Sabouraud dextrose agar plates and measured after 24 hrs post transfer; assay type: functional; details: MTCC 854, 24 h
Candida albicans [39] = experiment: Antifungal activity against Candida albicans MTCC 3018 after 24 hrs by well diffusion method; assay type: functional; details: MTCC 3018, 24 h
[Candida] aaseri [40] = Fungicidal activity against Candida aaseri MTCC 1962 incubated for 24 hrs followed by transfer of microbial suspension to Sabouraud dextrose agar plates and measured after 24 hrs post transfer; assay type: functional; details: Yamadazyma aaseri, MTCC 1962, 24 h
Staphylococcus aureus [41] = experiment: Antibiofilm activity against Staphylococcus aureus MTCC 96 after 24 hrs by crystal violet staining-based assay; assay type: functional, organism-based; details: Staphylococcus aureus, MTCC 96, 24 h; read-out: IC50
Candida albicans [42] = experiment: Fungicidal activity against Candida albicans MTCC 7315 incubated for 24 hrs followed by transfer of microbial suspension to Sabouraud dextrose agar plates and measured after 24 hrs post transfer; assay type: functional; details: MTCC 7315, 24 h
Bacillus subtilis [43] = experiment: Bactericidal activity against Bacillus subtilis MTCC 121 incubated for 24 hrs followed by transfer of microbial suspension to Mueller Hinton agar plates and measured after 24 hrs post transfer; assay type: functional; details: MTCC 121, 24 h
Candida albicans [44] = experiment: Antifungal activity against Candida albicans MTCC 3958 after 24 hrs by well diffusion method; assay type: functional; details: MTCC 3958, 24 h
Staphylococcus aureus [45] = experiment: Antibacterial activity against Staphylococcus aureus MLS16 MTCC 2940 after 24 hrs by well diffusion method; assay type: functional; details: MLS16 MTCC 2940, 24 h
Candida albicans [46] = experiment: Fungicidal activity against Candida albicans MTCC 3017 incubated for 24 hrs followed by transfer of microbial suspension to Sabouraud dextrose agar plates and measured after 24 hrs post transfer; assay type: functional; details: MTCC 3017, 24 h
Staphylococcus aureus [47] = experiment: Bactericidal activity against Staphylococcus aureus MTCC 96 incubated for 24 hrs followed by transfer of microbial suspension to Mueller Hinton agar plates and measured after 24 hrs post transfer; assay type: functional; details: MTCC 96, 24 h

COc1ccc(-c2nc(C(=O)N3CCN(C)CC3)nc3nc(-c4ccccc4)cc(C(F)(F)F)c23)cc1
inactive: MFC (Pichia kudriavzevii [8]) | MIC (Pichia kudriavzevii [35])
2.7 µg/mL: IC50 (Pseudomonas aeruginosa [9]) | IC50 (Bacillus subtilis [24])
3.9 µg/mL: MIC (Candida albicans [17]) | MIC (Candida albicans [27])
10.8 µg/mL: IC50 (Raoultella planticola [2]) | IC50 (Staphylococcus aureus [26])
31.2 µg/mL: MBC (Raoultella planticola [5]) | MFC (Candida albicans [14]) | MFC (Candida albicans [15]) | MIC (Candida albicans [18]) | MIC (Candida albicans [20]) | MBC (Micrococcus luteus [23]) | MFC (Candida parapsilosis [31]) | MBC (Escherichia coli [36]) | MFC (Candida albicans [38]) | MIC (Candida albicans [39]) | MFC ([Candida] aaseri [40])
62.5 µg/mL: MIC (Candida albicans [7]) | MFC (Candida albicans [16]) | MFC (Candida albicans [19]) | MFC (Candida albicans [30]) | MFC (Candida albicans [42]) | MIC (Candida albicans [44])
5.4 µg/mL: IC50 (Staphylococcus aureus [41])
7.8 µg/mL: MIC (Pichia sporocuriosa [1]) | MIC (Nakaseomyces glabratus [6]) | MIC (Staphylococcus aureus [22]) | MFC (Candida albicans [25]) | MIC (Bacillus subtilis [28]) | MIC (Pseudomonas aeruginosa [37]) | MFC (Candida albicans [46])
15.6 µg/mL: MIC (Candida albicans [3]) | MIC ([Candida] aaseri [4]) | MIC (Candida parapsilosis [10]) | MIC (Micrococcus luteus [11]) | MFC (Pichia sporocuriosa [12]) | MIC (Escherichia coli [13]) | MFC (Nakaseomyces glabratus [21]) | MBC (Pseudomonas aeruginosa [29]) | MBC (Staphylococcus aureus [32]) | MIC (Candida albicans [33]) | MIC (Raoultella planticola [34]) | MBC (Bacillus subtilis [43]) | MIC (Staphylococcus aureus [45]) | MBC (Staphylococcus aureus [47])
